Experimental data from patent publication US7138361B2, “Herbicidal heterocycles” (E. I. du Pont de Nemours and Company, priority 2000, dated 2006).

How the values were obtained:
Type in all cases: in vivo
[1] = system: Surinam grass (Brachiaria decumbens); assay: Test C preemergence
Summary of the method: (§1)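 Plants held in greenhouse for 12–14 days post-application are scored by eye against controls on a 0–100 control scale. Application timing: preemergence on sown seed, or postemergence on 2–18 cm plants.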

Sunflower [2] = assay: Test C preemergence; settings: Rate 125 g/ha; scale 0 to 100, 0 no effect, 100 complete control
[3] = system: common ragweed (Ambrosia elatior); assay: Test C preemergence
Summary of the method: as §1

Sunflower [4] = assay: Test C preemergence; settings: scale 0 to 100
Sunflower [5] = assay: Test C preemergence; settings: Rate 250 g/ha, scale 0 to 100, 0 no effect, 100 complete control
[6] = system: smallflower flatsedge (Cyperus difformis); assay: Test C flooded paddy test; settings: for Plant response rating, Flatsedge: scale 0 to 100 (0 no effect, 100 complete control)
Summary of the method: (§2)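 Ratings come from visual comparison with control plants after 12 to 14 days in the greenhouse. Each species was at the 2-leaf stage when the flooded paddy was treated. Scores run from 0, meaning no effect, to 100, meaning complete control.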

[7] = system: barnyardgrass (Echinochloa crus-galli); assay: Test C flooded paddy test; settings: for Plant response rating, Barnyardgrass: scale 0 to 100 (0 no effect, 100 complete control)
Summary of the method: as §2

[8] = system: duck salad (Heteranthera limosa); assay: Test C flooded paddy test; settings: for Plant response rating, Ducksalad: scale 0 to 100 (0 no effect, 100 complete control)
Summary of the method: as §2

rice (Oryza saliva) = assay: Test C flooded paddy test; settings: for Plant response rating, Rice: scale 0 to 100 (0 no effect, 100 complete control)
Summary of the method: as §2

[9] = system: Surinam grass (Brachiaria decumbens); assay: Test B postemergence
Summary of the method: (§3)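 Visual injury scores, 0 = no effect to 100 = complete control, assigned against controls after 13 to 15 days in the greenhouse. Compounds formulated in non-phytotoxic solvent plus surfactant and applied to soil after planting (pre) or onto foliage of 1- to 4-leaf plants (post).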

[10] = system: crabgrass (Digitaria sanguinalis); assay: Test B postemergence
Summary of the method: as §3

[11] = system: cocklebur (Xanthium strumarium); assay: Test B postemergence
Summary of the method: as §3

[12] = system: velvetleaf (Abutilon theophrasti); assay: Test B postemergence
Summary of the method: as §3

[13] = system: wheat (Triticum aestivum); assay: Test B postemergence
Summary of the method: as §3

[14] = system: barnyardgrass (Echinochloa crus-galli); assay: Test B postemergence
Summary of the method: as §3

[15] = system: pigweed (Amaranthus retroflexus); assay: Test B postemergence
Summary of the method: as §3

[16] = system: lambsquarters (Chenopodium album); assay: Test B postemergence
Summary of the method: as §3

corn (Zea mays) = assay: Test B postemergence
Summary of the method: as §3

wild oat (Avena fatua) = assay: Test B postemergence
Summary of the method: as §3

[17] = system: blackgrass (Alopecurus myosuroides); assay: Test B postemergence
Summary of the method: as §3

[18] = system: giant foxtail (Setaria faberii); assay: Test B postemergence
Summary of the method: as §3

[19] = system: morning glory (Ipomoea hederacea); assay: Test B postemergence
Summary of the method: as §3

[20] = Rate 125 g/ha, scale 0 to 100, 0 no effect, 100 complete control
[21] = preemergence, Rate 31 g/ha, scale 0 to 100
[22] = preemergence, Rate 62 g/ha, scale 0 to 100
[23] = preemergence, Rate 250 g/ha, scale 0 to 100, 0 no effect, 100 complete control
[24] = Flooded Paddy, Rate 500 g/ha, scale 0 to 100, 0 no effect, 100 complete control
[25] = flooded paddy test, Rate 125 g/ha
[26] = flooded paddy test, Rate 250 g/ha
[27] = flooded paddy test, Rate 62 g/ha, visually evaluated after 12 to 14 days, 0 = no effect, 100 = complete control
[28] = Rate 500 g/ha, scale 0 (no effect) to 100 (complete control), 13 to 15 days

Cc1cc(C)nc(N2CCC(n3ccc(C(C)(C)C)n3)C2=O)c1 (stereo not drawn) [Compound 138]
0: Plant response rating, Surinam grass [1, 20] | Plant response rating, Surinam grass [1, 21] | Plant response rating, Surinam grass [1, 22] | Plant response rating, Sunflower (Sunflower [2]) | Plant response rating, Ragweed, Common [3, 20] | Plant response rating, Ragweed, Common [3, 21] | Plant response rating, Ragweed, Common [3, 22] | Plant response rating, Sunflower (Sunflower [4]; Rate 31 g/ha) | Plant response rating, Sunflower (Sunflower [4]; Rate 62 g/ha) | Plant response rating (scale 0 to 100), Barnyardgrass [7, 27] | Plant response rating (scale 0 to 100), Ducksalad [8, 27] | Plant response rating, Rice (rice (Oryza saliva); [25]) | Plant response rating (scale 0 to 100), Rice (rice (Oryza saliva); [27]) | Plant response rating, Surinam grass [9, 20] | Plant response rating, Surinam grass [9, 28] | Plant response rating, Crabgrass [10, 20] | Plant response rating, Crabgrass [10, 28] | Plant response rating, Cocklebur [11, 20] | Plant response rating, Cocklebur [11, 28] | Plant response rating, Velvetleaf [12, 20] | Plant response rating, Velvetleaf [12, 28] | Plant response rating, Wheat [13, 20] | Plant response rating, Wheat [13, 28] | Plant response rating, Barnyardgrass [14, 20] | Plant response rating, Barnyardgrass [14, 28] | Plant response rating, Pigweed [15, 20] | Plant response rating, Lambsquarters [16, 20] | Plant response rating, Lambsquarters [16, 28] | Plant response rating, Corn (corn (Zea mays); [20]) | Plant response rating, Corn (corn (Zea mays); [28]) | Plant response rating, Wild Oat (wild oat (Avena fatua); [20]) | Plant response rating, Wild Oat (wild oat (Avena fatua); [28]) | Plant response rating, Blackgrass [17, 20] | Plant response rating, Blackgrass [17, 28] | Plant response rating, Foxtail, Giant [18, 20] | Plant response rating, Foxtail, Giant [18, 28]
50: Plant response rating, Sunflower (Sunflower [5])
100: Plant response rating, Surinam grass [1, 23] | Flatsedge plant response rating [6, 24] | Plant response rating, Flatsedge [6, 26] | Barnyardgrass plant response rating [7, 24] | Plant response rating, Barnyardgrass [7, 26] | Ducksalad plant response rating [8, 24]
30: Plant response rating, Ragweed, Common [3, 23] | Plant response rating, Rice (rice (Oryza saliva); [26]) | Plant response rating, Pigweed [15, 28] | Plant response rating, Morningglory [19, 28]
70: Rice plant response rating (rice (Oryza saliva); [24])
40: Plant response rating, Barnyardgrass [7, 25]
60: Plant response rating, Ducksalad [8, 26]
90: Plant response rating, Flatsedge [6, 25] | Plant response rating (scale 0 to 100), Flatsedge [6, 27]
20: Plant response rating, Ducksalad [8, 25]
10: Plant response rating, Morningglory [19, 20]
